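Exposure lasted 48 hours, with cells grown in 96-well plates and compounds tested at five concentrations. Abbreviation: GI50, concentration required for 50% inhibition of growth.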 Active and inactive are the calls of the source. Rule as the data show it: active = GI50 up to about 1.1 µM and inactive = higher.
Columns and labels:
Test in all cases: growth of human tumour cells (NCI), 48 h
786-0 = test system: 786-0
A549 = test system: A549
EKVX = test system: EKVX
HOP-62 = test system: HOP-62
HOP-92 = test system: HOP-92
K562 = test system: K562
KM12 = test system: KM12
MCF7 = test system: MCF7
MDA-MB-435 = test system: MDA-MB-435
MDA-N = test system: MDA-N
NCI-H226 = test system: NCI-H226
NCI-H23 = test system: NCI-H23
SF-268 = test system: SF-268
SK-MEL-28 = test system: SK-MEL-28
T47D = test system: T47D
UACC-62 = test system: UACC-62
IGROV-1 = test system: IGROV-1
LOX IMVI = test system: LOX IMVI
RXF 393 = test system: RXF 393
Hs-578T = test system: Hs-578T

Structure (SMILES) | GI50 (786-0) | GI50 (A549) | GI50 (EKVX) | GI50 (HOP-62) | GI50 (HOP-92) | GI50 (K562) | GI50 (KM12) | GI50 (MCF7) | GI50 (MDA-MB-435) | GI50 (MDA-N) | GI50 (NCI-H226) | GI50 (NCI-H23) | GI50 (SF-268) | GI50 (SK-MEL-28) | GI50 (T47D) | GI50 (UACC-62) | GI50 (IGROV-1) | GI50 (LOX IMVI) | GI50 (RXF 393) | GI50 (Hs-578T)
N#CCC(=O)c1cc(OCc2cc(OCc3ccc(Br)cc3)cc(OCc3ccc(Br)cc3)c2)cc(OCc2cc(OCc3ccc(Br)cc3)cc(OCc3ccc(Br)cc3)c2)c1 | > 100 µM (inactive) | > 100 µM (inactive) | > 100 µM (inactive) | > 100 µM (inactive) | > 100 µM (inactive) | 0.264 µM (active) | > 100 µM (inactive) | > 100 µM (inactive) | > 100 µM (inactive) | > 100 µM (inactive) | > 100 µM (inactive) | > 100 µM (inactive) | > 100 µM (inactive) | > 100 µM (inactive) | > 100 µM (inactive) | > 100 µM (inactive) | – | – | – | –
CCOC(=O)C12C3CCC1C2C(=O)C3 (stereo not given) | > 100 µM (inactive) | > 100 µM (inactive) | > 100 µM (inactive) | > 100 µM (inactive) | – | > 100 µM (inactive) | > 100 µM (inactive) | > 100 µM (inactive) | > 100 µM (inactive) | > 100 µM (inactive) | > 100 µM (inactive) | > 100 µM (inactive) | > 100 µM (inactive) | > 100 µM (inactive) | – | > 100 µM (inactive) | > 100 µM (inactive) | > 100 µM (inactive) | > 100 µM (inactive) | –
COC(=O)/C=C1/CCC(C)(C(=O)NS(=O)(=O)c2ccc(C)cc2)C1(C)C (stereo not given) | > 100 µM (inactive) | > 100 µM (inactive) | > 100 µM (inactive) | > 100 µM (inactive) | > 100 µM (inactive) | > 100 µM (inactive) | > 100 µM (inactive) | > 100 µM (inactive) | > 100 µM (inactive) | > 100 µM (inactive) | > 100 µM (inactive) | > 100 µM (inactive) | > 100 µM (inactive) | > 100 µM (inactive) | > 100 µM (inactive) | > 100 µM (inactive) | > 100 µM (inactive) | > 100 µM (inactive) | > 100 µM (inactive) | –
O=C1Oc2ccccc2C(=O)/C1=C/N1C(=O)N/C(=C\c2cccc(O)c2)C1=O | 74.8 µM (inactive) | > 100 µM (inactive) | > 100 µM (inactive) | 69.7 µM (inactive) | > 100 µM (inactive) | – | 62.5 µM (inactive) | > 100 µM (inactive) | 54.2 µM (inactive) | 63.8 µM (inactive) | > 100 µM (inactive) | 84.9 µM (inactive) | – | > 100 µM (inactive) | 54.2 µM (inactive) | – | 31.3 µM (inactive) | > 100 µM (inactive) | – | –
Cc1cc2c(C(C)C)c(O)c(O)c(/C=N/c3cc(C(F)(F)F)ccc3Cl)c2c(O)c1-c1c(C)cc2c(C(C)C)c(O)c(O)c(/C=N/c3cc(C(F)(F)F)ccc3Cl)c2c1O | 50.6 µM (inactive) | 38.5 µM (inactive) | 98.6 µM (inactive) | 70.5 µM (inactive) | 16.6 µM (inactive) | 39.4 µM (inactive) | 30.1 µM (inactive) | 27.7 µM (inactive) | 32.6 µM (inactive) | – | 29 µM (inactive) | 57.8 µM (inactive) | 37.2 µM (inactive) | 38.1 µM (inactive) | 29.6 µM (inactive) | 24.6 µM (inactive) | 25.1 µM (inactive) | 22.6 µM (inactive) | 28.8 µM (inactive) | > 100 µM (inactive)
Cc1c(NC(=S)Nc2ccc([N+](=O)[O-])cc2)c(=O)n(-c2ccccc2)n1C | > 100 µM (inactive) | > 100 µM (inactive) | > 100 µM (inactive) | > 100 µM (inactive) | > 100 µM (inactive) | 69.5 µM (inactive) | > 100 µM (inactive) | > 100 µM (inactive) | > 100 µM (inactive) | > 100 µM (inactive) | > 100 µM (inactive) | > 100 µM (inactive) | > 100 µM (inactive) | > 100 µM (inactive) | – | > 100 µM (inactive) | > 100 µM (inactive) | > 100 µM (inactive) | > 100 µM (inactive) | > 100 µM (inactive)
CCOC(=O)C1=C(O)C(=O)c2c(OC)ccc(OC)c2C1=O | > 100 µM (inactive) | > 100 µM (inactive) | > 100 µM (inactive) | > 100 µM (inactive) | > 100 µM (inactive) | > 100 µM (inactive) | > 100 µM (inactive) | – | – | – | > 100 µM (inactive) | > 100 µM (inactive) | > 100 µM (inactive) | > 100 µM (inactive) | – | > 100 µM (inactive) | > 100 µM (inactive) | > 100 µM (inactive) | > 100 µM (inactive) | –
CCOC(=O)NC(=O)c1cn(-c2ccc(CCOC(=O)CCCCCCCCC(=O)OCCc3ccc(-n4cc(C(=O)NC(=O)OCC)c(=O)[nH]c4=O)cc3)cc2)c(=O)[nH]c1=O | > 100 µM (inactive) | > 100 µM (inactive) | > 100 µM (inactive) | > 100 µM (inactive) | 26 µM (inactive) | > 100 µM (inactive) | > 100 µM (inactive) | – | – | – | > 100 µM (inactive) | > 100 µM (inactive) | > 100 µM (inactive) | > 100 µM (inactive) | – | > 100 µM (inactive) | 76.4 µM (inactive) | > 100 µM (inactive) | > 100 µM (inactive) | –
